Experimental data published in US6921770B2 (priority 2000, dated 2005).
Like-named read-outs stand apart in the source and are kept apart here.

How the values were obtained:
Oryzias latipes = settings: in vivo
rice blast fungi [1] = format: in vivo, Pyricularia grisea
Pyricularia grisea = format: in vivo
[2] = tested on: Salmonella typhimurium TA100 and TA98
Sprague-Dawley rats = settings: rat, in vivo
rice blast fungi [3] = format: cell-based, Magnaporthe grisea
rice blast fungi [4] = format: cell-based, Magnaporthe grisea; remark: listed apart in the source

Compound | Inhibiting Ratio (%) (at 250 ppm) (rice blast fungi [1]) | controlling effect on rice blast (Pyricularia grisea; 2 ppm) | controlling effect on rice blast (Pyricularia grisea; 10 ppm) | controlling effect on rice blast (Pyricularia grisea; 100 ppm) | other results
COc1ccc(NC(=O)Cc2csc(=Nc3ccccc3F)n2C)cc1.Cl [Compound 204, 2-(2-fluorophenylimino)-3-methyl-4-[N-(4-methoxyphenyl)carbamoylmethyl]-1,3-thiazol-4-ine hydrochloride] | 97% | 83% | 95% | 97% | Accumulated number of dead animals (Oryzias latipes): 0; acute toxicity value (Oryzias latipes): > 100 mg/L; bacterial reverse mutation [2]: does not cause bacterial reverse mutation; colony number in the group treated with the test material [2]: less than twice of that in the negative control group; body weight (Sprague-Dawley rats): Normal weight gain; dead animals (Sprague-Dawley rats): not observed; general symptoms (Sprague-Dawley rats): Any abnormal observations were made; postmortem examination (Sprague-Dawley rats): does not show any abnormal conservation; minimal lethal dose (Sprague-Dawley rats; po): higher than 2500 mg/kg
Cc1cccc2sc3nncn3c12 [tricyclazole, reference compound] | – | – | – | – | color of the medium (rice blast fungi [3]): red
Br.Cc1ccc(NC(=O)Cc2csc(=Nc3ccc(F)cc3F)n2C)cc1 [Compound 31, 2-(2,4-difluorophenylimino)-3-methyl-4-[N-(4-methylphenyl)carbamoylmethyl]-1,3-thiazol-4-ine hydrobromide] | 100% | 80% | 91% | 100% | –
COc1ccc(NC(=O)Cc2csc(=Nc3cccc(Br)c3)n2C)cc1.Cl [Compound 201, 2-(3-bromophenylimino)-3-methyl-4-[N-(4-methoxyphenyl)carbamoylmethyl]-1,3-thiazol-4-ine hydrochloride] | 97% | 87% | 99% | 97% | –
2-(3-trifluoromethoxyphenylimino)-3-methyl-4-[N-methoxyphenyl)carbamoylmethyl]-1,3-thiazol-4-ine [Compound 339] | 98% | 80% | 95% | 96% | –
COc1ccc(NC(=O)Cc2csc(=Nc3cccc(F)c3)n2C)cc1.Cl [Compound 203, 2-(3-fluorophenylimino)-3-methyl-4-[N-(4-methoxyphenyl)carbamoylmethyl]-1,3-thiazol-4-ine hydrochloride] | 93% | 93% | 99% | 93% | –
Br.Cn1c(CC(=O)Nc2ccccc2)csc1=Nc1cc(Cl)cc(Cl)c1 [Compound 5, 2-(3,5-dichlorophenylimino)-3-methyl-4-(N-phenylcarbamoylmethyl)-1,3-thiazol-4-ine hydrobromide] | 100% | – | – | – | color of the medium (rice blast fungi [3]; 5 μg/ml): white; concentration at which the accumulation of melanin in the appressorium is inhibited (rice blast fungi [4]): above 10 μg/ml
Br.COc1ccc(NC(=O)Cc2csc(=Nc3ccc(C#N)cc3)n2C)cc1 [Compound 323, 2-(4-cyanophenylimino)-3-methyl-4-[N-(4-methoxyphenyl)carbamoylmethyl]-1,3-thiazol-4-ine hydrobromide] | 97% | 75% | 100% | 100% | –
